Assays:
galium = experiment: Test A postemergence; type: in vivo, Galium aparine; details: 1000 g ai/ha, Postemergence; 0 to 100 scale
Procedure, shortened: (§1)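 Visual injury ratings on a 0–100 scale (100 = complete control) versus untreated controls, taken 10 days after treatment in greenhouse. Preemergence: directed soil spray onto seeded loam/sand. Postemergence: foliar application at one- to two-leaf stage, plants 2–10 cm. Formulation: non-phytotoxic solvent plus surfactant.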

Pigweed, Redroot [1] = experiment: Test A preemergence; type: in vivo, Amaranthus retroflexus; details: 1000 g ai/ha, 0 to 100 scale (0 no effect, 100 complete control), 10 days
From the text: (§2) Seeds of plant species selected from barnyardgrass (Echinochloa crusgalli), blackgrass (Alopecurus myosuroides), corn (Zea mays), foxtail, giant (giant foxtail, Setaria faberi), goosegrass (Eleusine indica), kochia (Bassia scoparia), oat, wild (wild oat, Avena fatua), pigweed, palmer (palmer amaranth, palmer pigweed, Amaranthus palmeri), Pigweed, Redroot (redroot pigweed, Amaranthus retroflexus), ragweed (common ragweed, Ambrosia artemisiifolia), ryegrass, Italian (italian ryegrass, Lolium multiflorum), soybean (Glycine max), and wheat (Triticum aestivum) were planted into a blend of loam soil and sand and treated preemergence with a directed soil spray using test chemicals formulated in a non-phytotoxic solvent mixture which included a surfactant. At the same time, plants selected from these crops and weed species and also galium (catchweed bedstraw, Galium aparine) and horseweed (Erigeron canadensis) were planted in pots containing the same blend of loam soil and sand and treated with postemergence applications of test chemicals formulated in the same manner. Plants ranged in height from 2 to 10 cm and were in the one- to two-leaf stage for the postemergence treatment. Treated plants and untreated controls were maintained in a greenhouse for 10 days, after which time all treated plants were compared to untreated controls and visually evaluated for injury. Plant response ratings, summarized in Table A, are based on a 0 to 100 scale where 0 is no effect and 100 is complete control. A dash (-) response means no test result.

corn = experiment: Test A postemergence; type: in vivo, Zea mays; details: 1000 g ai/ha, Postemergence; 0 to 100 scale
Procedure, shortened: as §1

ragweed [2] = experiment: Test A preemergence; type: in vivo, Ambrosia artemisiifolia; details: 1000 g ai/ha, 0 to 100 scale (0 no effect, 100 complete control), 10 days
Procedure, shortened: as §1

blackgrass = experiment: Test A postemergence; type: in vivo, Alopecurus myosuroides; details: 1000 g ai/ha, Postemergence; 0 to 100 scale
Procedure, shortened: as §1

foxtail, giant [3] = experiment: Test A preemergence; type: in vivo, Setaria faberi; details: 1000 g ai/ha, 0 to 100 scale (0 no effect, 100 complete control), 10 days
Procedure, shortened: as §1

kochia [4] = experiment: Test A postemergence; type: in vivo, Bassia scoparia; details: 1000 g ai/ha, Postemergence; 0 to 100 scale
Procedure, shortened: as §1

barnyardgrass [5] = experiment: Test A preemergence; type: in vivo, Echinochloa crusgalli; details: 1000 g ai/ha, 0 to 100 scale (0 no effect, 100 complete control), 10 days
Procedure, shortened: as §1

wheat = experiment: Test A postemergence; type: in vivo, Triticum aestivum; details: 1000 g ai/ha, Postemergence; 0 to 100 scale
Procedure, shortened: as §1

foxtail, giant [6] = experiment: Test A postemergence; type: in vivo, Setaria faberi; details: 1000 g ai/ha, Postemergence; 0 to 100 scale
Procedure, shortened: as §1

ragweed [7] = experiment: Test A postemergence; type: in vivo, Ambrosia artemisiifolia; details: 1000 g ai/ha, Postemergence; 0 to 100 scale
Procedure, shortened: as §1

kochia [8] = experiment: Test A preemergence; type: in vivo, Bassia scoparia; details: 1000 g ai/ha, 0 to 100 scale (0 no effect, 100 complete control), 10 days
Procedure, shortened: as §1

ryegrass, Italian [9] = experiment: Test A preemergence; type: in vivo, Lolium multiflorum; details: 1000 g ai/ha, 0 to 100 scale (0 no effect, 100 complete control), 10 days
Procedure, shortened: as §1

barnyardgrass [10] = experiment: Test A postemergence; type: in vivo, Echinochloa crusgalli; details: 1000 g ai/ha, Postemergence; 0 to 100 scale
Procedure, shortened: as §1

ryegrass, Italian [11] = experiment: Test A postemergence; type: in vivo, Lolium multiflorum; details: 1000 g ai/ha, Postemergence; 0 to 100 scale
Procedure, shortened: as §1

Pigweed, Redroot [12] = experiment: Test A postemergence; type: in vivo, Amaranthus retroflexus; details: 1000 g ai/ha, Postemergence; 0 to 100 scale
From the text: as §2

rice = experiment: Test B flooded paddy test; type: in vivo, Oryza sativa; details: 250 g ai/ha, Flood, 13 days, 0 to 100 scale (0 no effect, 100 complete control)
Procedure, shortened: (§3)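 Each species was raised to the 2-leaf stage. At treatment, each pot received floodwater 3 cm deep, with the chemical delivered into the water. Greenhouse holding followed for 13 days, then percent control was estimated visually versus untreated pots.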

ducksalad = experiment: Test B flooded paddy test; type: in vivo, Heteranthera limosa; details: 250 g ai/ha, Flood, 13 days, 0 to 100 scale (0 no effect, 100 complete control)
Procedure, shortened: as §3

barnyardgrass [13] = experiment: Test B flooded paddy test; type: in vivo, Echinochloa crus-galli; details: 250 g ai/ha, Flood, 13 days, 0 to 100 scale (0 no effect, 100 complete control)
Procedure, shortened: as §3

sedge, umbrella = experiment: Test B flooded paddy test; type: in vivo, Cyperus difformis; details: 250 g ai/ha, Flood, 13 days, 0 to 100 scale (0 no effect, 100 complete control)
Procedure, shortened: as §3

Row | SMILES | Plant response rating, Galium (galium) | Plant response rating, Pigweed, Redroot (Pigweed, Redroot [1]) | Plant response rating, Corn (corn) | Plant response rating, Ragweed (ragweed [2]) | Plant response rating, Blackgrass (blackgrass) | Plant response rating, Foxtail, Giant (foxtail, giant [3]) | Plant response rating, Kochia (kochia [4]) | Plant response rating, Barnyardgrass (barnyardgrass [5]) | Plant response rating, Wheat (wheat) | Plant response rating, Foxtail, Giant (foxtail, giant [6]) | Plant response rating, Ragweed (ragweed [7]) | Plant response rating, Kochia (kochia [8]) | Plant response rating, Ryegrass, Italian (ryegrass, Italian [9]) | Plant response rating, Barnyardgrass (barnyardgrass [10]) | Plant response rating, Ryegrass, Italian (ryegrass, Italian [11]) | Plant response rating, Pigweed, Redroot (Pigweed, Redroot [12]) | Plant response rating, Rice (rice) | Plant response rating, Ducksalad (ducksalad) | Plant response rating, Barnyardgrass (barnyardgrass [13]) | Plant response rating, Sedge, Umbrella (sedge, umbrella)
1 | C[C@H]1CN(C(=O)c2cccc(-c3ccncc3)c2)c2cccc(Cl)c2O1 [Compound 123] | 50 | 30 | 0 | 30 | 20 | 0 | 20 | 40 | 0 | 10 | 0 | 30 | 30 | 20 | 30 | 60 |  |  |  | 
2 | C[C@H]1CN(C(=O)c2cccc(-n3cccn3)c2)c2cccc(Cl)c2O1 [Compound 129] | 30 | 20 | 0 | 0 | 30 | 0 | 10 | 20 | 0 | 10 | 0 | 20 | 50 | 20 | 0 | 70 |  |  |  | 
3 | CC1CN(C(=O)c2ccnc(-n3cncn3)c2)c2cccc(Cl)c2O1 (stereo not shown) [Compound 10] |  | 40 |  | 80 |  | 100 |  | 90 |  |  |  | 30 | 80 |  |  |  | 0 | 0 | 0 | 0
4 | CCCC1CN(C(=O)c2ccnc(-n3cncn3)c2)c2cccc(Cl)c2O1 (stereo not shown) [Compound 2] |  | 20 |  | 0 |  | 100 |  | 60 |  |  |  | 0 | 60 |  |  |  |  |  |  | 
5 | CCC1CN(C(=O)c2ccnc(-n3cncn3)c2)c2cccc(Cl)c2O1 (single isomer, unassigned) [Compound 5] |  | 80 |  | 0 |  | 100 |  | 70 |  |  |  | 30 | 80 |  |  |  | 0 | 35 | 25 | 0
6 | CCC1CN(C(=O)c2ccnc(-n3cncn3)c2)c2cccc(Cl)c2O1 (single isomer, unassigned) [Compound 4] |  | 0 |  | 0 |  | 0 |  | 0 |  |  |  | 0 | 0 |  |  |  |  |  |  | 
7 | C=Cc1cccc2c1OC(C)CN2C(=O)c1cccc(-n2cncn2)c1 (stereo not shown) [Compound 26] |  | 0 | 0 | 0 | 0 | 0 | 0 | 0 | 0 | 0 | 0 | 0 | 0 | 0 | 0 | 0 |  |  |  | 
